What was measured:
[1] = test system: PC-3, MDA-MB-231, WiDr, and HT-29 Cells; assay: Order of apoptosis potency across cancer cell lines; parameters: species or system human; details: rank based on responses observed in PC-3, MDA-MB-231, WiDr, and HT-29 Cells; 1 = most active
[2] = test system: MDA-MB-231 cells; assay: Dual Sensor: MitoCasp Assay in MDA-MB-231 breast cancer cells; assay type: cell-based, human
From the text: (§1) Techniques to assay enzymatic and signaling processes involved in apoptosis have been developed as standard protocols. One example of an early step in apoptosis, is the release of cytochrome C from mitochondria and the activation of caspase-3. Induction of the caspases (a series of cytosolic proteases) is one of the most consistently observed features of apoptosis. Caspases are a family of proteolytic enzymes that transmit the apoptotic signal using a proteolytic cascade. […] Caspases 3 and 7 are effector caspases, central to the caspase cascade pathways. In particular, caspase-3 plays a central role in the process. When caspases are activated, they cleave target proteins; one of the most important of these is poly-(ADP-ribose) polymerase (PARP), which is a protein located in the nucleus. Therefore, assays detecting release of cytochrome C, detecting caspase-3 activity and detecting PARP degradation are effective determinants of apoptosis. The loss of mitochondrial membrane potential is known to occur during apoptosis. To analyze mitochondrial membrane potential, a cationic dye may be used which accumulates in the mitochondria of healthy cells. Collapse of the mitochondrial membrane potential during apoptosis prevents the dye from accumulating in the mitochondria resulting in a decrease in fluorescent intensity that can be detected with flow cytometry. Dual Sensor: MitoCasp™ (Cell Technology) used herein in the Examples is an assay that measures caspase 3/7 activity and cells with decreased mitochondrial membrane potential. In this assay, caspase 3/7 activity is detected using a cell permeable carboxyfluorescein labeled caspase inhibitor, which binds covalently to active caspases 3 and 7. Cells that contain bound inhibitor are detected by an increase in fluorescence when samples are analyzed by flow cytometry.
(§2) Following centrifugation at 500×g for 5 min, cell pellets were resuspended in PBS at 3.3×10^6 cells/mL. 300 μL cell suspension was mixed with 10 μL each of 30X Mitochondria Membrane Potential Dye and 30X Caspase 3/7 detection reagent. Following incubation for 60 min under normal growth conditions, cells were washed twice with 1× wash buffer and resuspended in 0.5 mL 1× wash buffer. Samples were analyzed by flow cytometry measuring the fluorescence emissions from 515 nm to 530 nm for caspase detection, and 574 nm to 600 nm for mitochondrial membrane potential detection.
The MDA-MB-231 cell line (ATCC #HTB-26) was derived from the pleural effusion of a patient with a breast adenocarcinoma (Cailleau et al., 1974). The cells were maintained in RPMI 1640 (Gibco) supplemented with 10% fetal bovine serum (Camera), 100 U/mL penicillin, 100 μg/mL streptomycin and 0.25 μg/mL amphotericin B. Cultures were maintained in medium at 37° C. with 5% CO2 and 100% relative humidity. […]

[3] = test system: PC-3 cells; assay: Dual Sensor: MitoCasp Assay in PC-3 prostate cancer cells; assay type: cell-based, human
From the text: as §1
PC-3 cells (ATCC #CRL-1435) were derived from a prostate adenocarcinoma (Kaighn et al., 1979). They were maintained in RPMI 1640 medium (Gibco) supplemented with 10% fetal bovine serum (Cansera), 100 U/mL penicillin, and 100 μg/mL streptomycin and 0.25 μg/mL amphotericin B. Cultures were maintained in medium at 37° C. with 5% CO2 and 100% relative humidity.
To harvest adherent cells, the existing medium was removed and cells were dissociated with 0.25% (w/v) trypsin-EDTA·4Na in Hank's Balanced Salt Solution (Gibco). To block the proteolytic action of the trypsin, the cells were resuspended in an excess of media containing fetal bovine serum. Cells were transferred to a 15 mL conical centrifuge tube and pelleted by centrifugation at 500×g for 5 min. Cell pellets were resuspended in media, and an aliquot of the cells were seeded into a new flask.
PC-3 cells were seeded in tissue culture flasks with regular growth medium and maintained under normal conditions. […] Following incubation under normal growth conditions for the specified time, cells were washed once with cold phosphate-buffered saline (PBS) (137 mM NaCl, 2.7 mM KCl, 4.3 mM Na2HPO4.7H2O, 1.4 mM KH2PO4) and harvested as previously described. Assays were carried out according to instructions given in kits. All Flow Cytometry was performed using a Coulter Epics XL (Beckman).
as §2

[4] = Haemolytic properties of selected saponins; details: saponins purified to more than 75%
From the text: The haemolytic properties of the various saponins that have been purified to more than 75% have been examined and are provided in Table 39. Haemolytic properties are not directly related to anti-cancer or apoptosis inducing properties of saponins but may be related to toxicity and utility of the saponins for preparation of injectable formulations. Saponins most suitable for injectable formulation will be less haemolytic. QS21, a purified Quillaja saponaria saponin with known haemolytic activity is used as reference.

[5] = 5.0 μM saponin, 36 hours (comparison of saponins)

Segetoside H [PC1448]
Order of Apoptosis Potency [1]: 7 | Cells with caspase 3/7 activity ([2]; 2.5 μM PC1448, 36 hr): 19.3% | Cells with decreased mitochondrial membrane potential ([2]; 2.5 μM PC1448, 36 hr): 9.9% | Cells with caspase 3/7 activity ([2]; 5.0 μM PC1448, 36 hr): 25.8% | Cells with decreased mitochondrial membrane potential ([2]; 5.0 μM PC1448, 36 hr): 12.6% | Cells with caspase 3/7 activity [2, 5]: 12.8% | Cells with decreased mitochondrial membrane potential [2, 5]: 5.3% | Cells with caspase 3/7 activity ([2]; 10.0 μM PC1448, 36 hr): 40.0% | Cells with decreased mitochondrial membrane potential ([2]; 10.0 μM PC1448, 36 hr): 17.9% | Cells with caspase 3/7 activity ([2]; 15.0 μM PC1448, 36 hr): 40.9% | Cells with decreased mitochondrial membrane potential ([2]; 15.0 μM PC1448, 36 hr): 20.8% | Concentration of greatest effect on apoptosis ([2]; 36 hours): above 10 μM | Induction of apoptosis at concentrations as low as ([2]; 36 hours): 5.0 µM | Cells with caspase 3/7 activity ([3]; 2.5 μM PC1448, 37 hr): 5.6% | Cells with decreased mitochondrial membrane potential ([3]; 2.5 μM PC1448, 37 hr): 6.0% | Cells with caspase 3/7 activity ([3]; 5.0 μM PC1448, 37 hr): 35.1% | Cells with decreased mitochondrial membrane potential ([3]; 5.0 μM PC1448, 37 hr): 9.9% | Cells with caspase 3/7 activity ([3]; 7 μM PC1448, 26 hr): 77.8% | Cells with decreased mitochondrial membrane potential ([3]; 7 μM PC1448, 26 hr): 24.8% | Cells with caspase 3/7 activity ([3]; 10 μM PC1448, 26 hr): 86.2% | Cells with decreased mitochondrial membrane potential ([3]; 10 μM PC1448, 26 hr): 30.8% | Cells with caspase 3/7 activity ([3]; 10.0 μM PC1448, 37 hr): 76.8% | Cells with decreased mitochondrial membrane potential ([3]; 10.0 μM PC1448, 37 hr): 26.7% | Cells with caspase 3/7 activity ([3]; 14 μM PC1448, 05 hr): 13.0% | Cells with decreased mitochondrial membrane potential ([3]; 14 μM PC1448, 05 hr): 38.0% | Cells with caspase 3/7 activity ([3]; 14 μM PC1448, 10 hr): 29.2% | Cells with decreased mitochondrial membrane potential ([3]; 14 μM PC1448, 10 hr): 72.5% | Cells with caspase 3/7 activity ([3]; 14 μM PC1448, 15 hr): 42.9% | Cells with decreased mitochondrial membrane potential ([3]; 14 μM PC1448, 15 hr): 89.4% | Cells with caspase 3/7 activity ([3]; 14 μM PC1448, 20 hr): 57.2% | Cells with decreased mitochondrial membrane potential ([3]; 14 μM PC1448, 20 hr): 94.1% | Increase in cells with a decreased mitochondrial membrane potential vs untreated ([3]; 14 μM PC1448, 20 hr (4.5% to 94.1%)): ~20 fold | Cells with caspase 3/7 activity ([3]; 14 μM PC1448, 26 hr): 84.0% | Cells with decreased mitochondrial membrane potential ([3]; 14 μM PC1448, 26 hr): 52.0% | Increase in cells with measurable caspase 3/7 activity vs untreated ([3]; 14 μM PC1448, over the 20 hr exposure period): approximately a doubling | Cells with caspase 3/7 activity ([3]; 15.0 μM PC1448, 37 hr): 72.9% | Cells with decreased mitochondrial membrane potential ([3]; 15.0 μM PC1448, 37 hr): 32.3% | Cells with caspase 3/7 activity ([3]; 17 μM PC1448, 26 hr): 77.7% | Cells with decreased mitochondrial membrane potential ([3]; 17 μM PC1448, 26 hr): 41.9% | Concentration of greatest effect on apoptosis ([3]; 37 hours): above 10 μM | Induction of apoptosis at concentrations as low as ([3]; 37 hours): 5.0 µM | Concentration with the greatest change in cells with decreased mitochondrial membrane potential ([3]; PC1448 7-17 μM, 26 hr): 14 µM | Concentration with the largest increase in caspase 3/7 activity ([3]; PC1448 7-17 μM, 26 hr): 10 µM | Increase in caspase 3/7 activity vs untreated ([3]; PC1448 7-17 μM, 26 hr, all treated cells): 9 fold | HD50 [4]: 13.8 µM

Segetoside I [PC1464]
Order of Apoptosis Potency [1]: 4 | Cells with caspase 3/7 activity ([2]; 1.25 μM PC1464, 35 hr): 16.7% | Cells with decreased mitochondrial membrane potential ([2]; 1.25 μM PC1464, 35 hr): 15.6% | Cells with caspase 3/7 activity ([2]; 2.5 μM PC1464, 35 hr): 32.4% | Cells with decreased mitochondrial membrane potential ([2]; 2.5 μM PC1464, 35 hr): 21.2% | Cells with caspase 3/7 activity ([2]; 3.5 μM PC1464, 12 hr): 20.0% | Cells with decreased mitochondrial membrane potential ([2]; 3.5 μM PC1464, 12 hr): 19.9% | Cells with caspase 3/7 activity ([2]; 3.5 μM PC1464, 24 hr): 27.5% | Cells with decreased mitochondrial membrane potential ([2]; 3.5 μM PC1464, 24 hr): 51.5% | Increase in number of cells with caspase 3/7 activity ([2]; 3.5 μM PC1464, 36 hours): two fold | Increase in number of cells with reduced mitochondrial membrane potential ([2]; 3.5 μM PC1464, 36 hours): eight fold | Cells with caspase 3/7 activity ([2]; 3.5 μM PC1464, 36 hr): 29.1% | Cells with decreased mitochondrial membrane potential ([2]; 3.5 μM PC1464, 36 hr): 52.0% | Cells with caspase 3/7 activity ([2]; 5.0 μM PC1464, 35 hr): 53.0% | Cells with decreased mitochondrial membrane potential ([2]; 5.0 μM PC1464, 35 hr): 32.8% | Cells with caspase 3/7 activity [2, 5]: 39.9% | Cells with decreased mitochondrial membrane potential [2, 5]: 13.7% | Cells with caspase 3/7 activity ([2]; 10.0 μM PC1464, 35 hr): 55.7% | Cells with decreased mitochondrial membrane potential ([2]; 10.0 μM PC1464, 35 hr): 39.6% | Concentration of greatest effect on apoptosis ([2]; 35 hours): above 5 μM | Induction of apoptosis at concentrations as low as ([2]; 35 hours): 2.5 µM | Cells with caspase 3/7 activity ([3]; 1.25 μM PC1464, 36 hr): 9.6% | Cells with decreased mitochondrial membrane potential ([3]; 1.25 μM PC1464, 36 hr): 1.8% | Cells with caspase 3/7 activity ([3]; 1.75 μM PC1464, 26 hr): 8.5% | Cells with decreased mitochondrial membrane potential ([3]; 1.75 μM PC1464, 26 hr): 3.2% | Cells with caspase 3/7 activity ([3]; 2.5 μM PC1464, 36 hr): 15.1% | Cells with decreased mitochondrial membrane potential ([3]; 2.5 μM PC1464, 36 hr): 3.4% | Cells with caspase 3/7 activity ([3]; 3.50 μM PC1464, 26 hr): 40.4% | Cells with decreased mitochondrial membrane potential ([3]; 3.50 μM PC1464, 26 hr): 14.8% | Cells with caspase 3/7 activity ([3]; 5.0 μM PC1464, 36 hr): 57.1% | Cells with decreased mitochondrial membrane potential ([3]; 5.0 μM PC1464, 36 hr): 28.7% | Cells with caspase 3/7 activity ([3]; 5.25 μM PC1464, 26 hr): 49.5% | Cells with decreased mitochondrial membrane potential ([3]; 5.25 μM PC1464, 26 hr): 20.3% | Cells with caspase 3/7 activity ([3]; 7 μM PC1464, 10 hr): 12.2% | Cells with decreased mitochondrial membrane potential ([3]; 7 μM PC1464, 10 hr): 5.1% | Cells with caspase 3/7 activity ([3]; 7 μM PC1464, 20 hr): 40.1% | Cells with decreased mitochondrial membrane potential ([3]; 7 μM PC1464, 20 hr): 21.4% | Cells with caspase 3/7 activity ([3]; 7.00 μM PC1464, 26 hr): 59.4% | Cells with decreased mitochondrial membrane potential ([3]; 7.00 μM PC1464, 26 hr): 24.1% | Increase in cells with decreased mitochondrial membrane potential ([3]; 7 μM PC1464, 30 hours): more than ten fold | Increase in number of cells with caspase 3/7 activity ([3]; 7 μM PC1464, 30 hours): six fold | Cells with caspase 3/7 activity ([3]; 7 μM PC1464, 30 hr): 54.6% | Cells with decreased mitochondrial membrane potential ([3]; 7 μM PC1464, 30 hr): 51.2% | Cells with caspase 3/7 activity ([3]; 10.0 μM PC1464, 36 hr): 59.6% | Cells with decreased mitochondrial membrane potential ([3]; 10.0 μM PC1464, 36 hr): 43.2% | Concentration of greatest effect on apoptosis ([3]; 36 hours): above 5 μM | Induction of apoptosis at concentrations as low as ([3]; 36 hours): 2.5 µM | Concentrations with significant effect on induction of apoptosis ([3]; PC1464 1.75-7 μM, 26 hour): ≥ 3.5 µM | HD50 [4]: 17.5 µM

From patent US20110230430A1, “SAPONIN EXTRACT FROM SAPONARIA SPP. AND USES THEREOF” (NATIONAL RESEARCH COUNCIL OF CANADA, priority 2008, published 2011)
